Structures are written as SMILES. Calls of active or inactive are those of the source. How the calls were made is not given here. *1 amine or outer side, *2 acyl side, *3 side chain or, on linkers, in order; H or OH if unused. Where a SMILES comes first, the peptide text is derived from it. [ ]: non-standard residue; d: D form. X2 = CCC[C@@H](N[*:1])[C@H](C)C(=O)O[C@H](C(=O)[*:2])[C@@H](C)CC; X1 = CC(N[*:1])C(=O)C(C)(C)C(=O)[*:2]; NMeY = CN[C@@H](Cc1ccc(O)cc1)C(=O)O; NMeL = CN[C@@H](CC(C)C)C(=O)O; NMeV = CN[C@H](C(=O)O)C(C)C; NMeA = CN[C@@H](C)C(=O)O

The record followed here is PubChem BioAssay AID489033 (Sanford-Burnham Center for Chemical Genomics, 2010).

The experiment deals with 697B B-cell line, NF-kB luciferase reporter luminescence. Nature of the experiment: inhibitors of B-cell NF-kB luciferase signal – 697B cells, luminescence, selectivity assay for T-cell antigen receptor NF-kB inhibitors, dose response (AID 489033).

Broadly, the IC50 is the concentration that inhibits the measured activity by half. With `COc1cccc(N2CCN(C(=O)c3ccc(CS(=O)c4ccccc4C)o3)CC2)c1` (stereo not drawn), the IC50 was > 80 µM (inactive).

Consider `CCCC(=O)NC(c1ccccc1Cl)c1ccc2cccnc2c1O` (stereo not drawn), for which the IC50 was > 80 µM (inactive).

For the molecule `Cc1ccc2nc(-c3ccc4c(c3)OCCO4)cn2c1`, the IC50 was 0.47 µM.

Take `COc1ccc(OC)c(NS(=O)(=O)c2ccc(N3CCCC3=O)cc2)c1`: the IC50 is > 80 µM (inactive).

On to `CCc1c(C)nc2ncnn2c1NCCc1ccc(OC)cc1`, for which the IC50 is > 80 µM (inactive).

`CCOc1ccc2c(c1)OC(c1ccc(OC)cc1)(C(F)(F)F)NC2=O` (stereo not drawn): the IC50 was > 80 µM (inactive).

Consider `CC1=C([N+](=O)[O-])C(c2ccccc2)C2=C(N1)c1ccccc1C2=O` (stereo not drawn), for which the IC50 was > 80 µM (inactive).

As to `CC(C)(C)c1ccc(C(=O)O/N=C(\N)c2ccccc2)cc1`, the IC50 was 0.17 µM.

For `O=C(N=Nc1c(O)[nH]c2ccc(Br)cc12)c1ccccc1-n1cccc1`, the IC50 was 57 µM (inactive).

With `COc1ccccc1C1=NOC(COc2ccc3c(C)cc(=O)oc3c2)C1` (stereo not drawn), the IC50 was > 80 µM (inactive).

With `COc1ccc(C(=O)c2ccc(N(C)C)cc2)c(OC)c1`, the IC50 was > 80 µM (inactive).

As to `Brc1ccc2c(c1)C(C1=NCCN1)c1ccccc1CS2` (stereo not drawn), the IC50 was > 80 µM (inactive).

As to `COc1ccc(OC)c(CCNC(=O)Cn2nc(C)c3c(C)n(-c4ccc(C)cc4)nc3c2=O)c1`, the IC50 was > 80 µM (inactive).

As for `Cc1ccc(S(=O)(=O)NCc2ccncc2)cc1C`, the IC50 is > 80 µM (inactive).

`Cc1ccc2c(c1)Oc1ccc(NC(=O)CCl)cc1C(=O)N2`: the IC50 was 0.72 µM.

For the molecule `COc1cc(-c2noc(C)c2/C=C/c2ccc(OC(C)=O)cc2)cc(OC)c1OC`, the IC50 was > 80 µM (inactive).

As to `Cc1nc2ccccc2c2c1CC(C(C)(Cl)Br)O2` (stereo not drawn), the IC50 is 22.8 µM (inactive).

In the case of `COc1ccc(Nc2ncnc3ccc(Br)cc23)c(OC)c1`, the IC50 is 0.37 µM.

`Cc1c(C(=O)N2CCOCC2)[nH]c2c1C(=O)CC(c1ccccc1Cl)C2` (stereo not drawn): the IC50 is > 80 µM (inactive).

With `CCOC(=O)c1[nH]c(C)c(C(=O)OCC(=O)NC(C)c2ccc(F)cc2)c1C` (stereo not drawn), the IC50 is > 80 µM (inactive).

As for `CCOc1cc(C(=O)N/N=C/C(Br)=C/c2ccccc2)cc(OCC)c1OCC`, the IC50 is 35.6 µM (inactive).

With `CCOC(=O)c1ccc(Nc2nc(N)c3cc(OC)c(OC)cc3n2)cc1`, the IC50 is > 80 µM (inactive).

In the case of `CN(Cc1ccccc1)C1=CC(=[N+]2CCCC2)CC(C)(C)C1`, the IC50 is > 80 µM (inactive).

For `CCN(CC)c1ccc(/C=N/NC(=O)c2nnn(-c3nonc3N)c2C(C)C)c(O)c1`, the IC50 was 1.5 µM.

Turning to `Cc1cc(C)cc(NC(=O)c2ccc([N+](=O)[O-])o2)c1`, the IC50 was 21.3 µM (inactive).

On to `CNC[C@@H](CC1CCCCC1)NC[C@H](CC(C)C)NCCc1cccc(C(F)(F)F)c1`, for which the half-maximal inhibitory concentration (IC50) was 4.88 µM.

Consider `COc1cc(C(=O)N/N=C/c2cc([N+](=O)[O-])cs2)cc(OC)c1OC`, for which the IC50 is 5.64 µM.

For `Cc1ccc(S(=O)(=O)NCc2ccncc2)c(C)c1C`, the IC50 is > 80 µM (inactive).

For `CCOC(=O)COc1cccc2c(=O)n(CC(=O)NCc3ccccc3)ccc12`, the IC50 is > 80 µM (inactive).

For `O=S(=O)(c1ccc2c(c1)OCCO2)N1CCN(c2ncnc3sccc23)CC1`, the IC50 was 4 µM.

Consider `O=C(N/N=C/c1c(O)ccc2ccccc12)c1cccc(C(F)(F)F)c1`, for which the IC50 is 18.6 µM.

Take `COC(=O)c1ccccc1NC1=C/C(=N\S(=O)(=O)c2cccs2)c2ccccc2C1=O`: the IC50 was 4.91 µM.

Take `COc1ccc(/C=N/Nc2cc(C)nc3ccc(OC)cc23)c(OC)c1`: the IC50 is 5.2 µM.

Take `Cc1ccc(NS(=O)(=O)c2ccc(-c3cnc(C4CC4)o3)cc2)c(C)c1`: the IC50 is > 80 µM (inactive).

As to `CCCCCCCCCCCCCCCC[n+]1ccc(C(N)=O)cc1`, the IC50 is 8.82 µM.

In the case of `C[C@@H]1O[C@@H](O[C@H]2C[C@@H](O)[C@]3(CO)[C@H]4[C@H](O)C[C@]5(C)[C@@H](C6COC(=O)C6)CC[C@]5(O)[C@@H]4CC[C@]3(O)C2)[C@H](O)[C@H](O)[C@H]1O` (stereo partly drawn), the IC50 was 3.72 µM.

For `CC(=O)O[C@H]1C(=O)[C@@]2(C)C([C@H](OC(=O)c3ccccc3)[C@]3(O)C[C@H](OC(=O)[C@H](O)[C@@H](NC(=O)Cc4ccccc4)c4ccccc4)C(C)=C1C3(C)C)[C@]1(OC(C)=O)CO[C@@H]1C[C@@H]2O` (stereo partly drawn), the IC50 is > 80 µM (inactive).

`COc1ccc(CNC(=O)c2c(C)oc3c2C(=O)c2ccccc2C3=O)cc1`: the IC50 is > 80 µM (inactive).

For the molecule `O=C(N/N=C/c1ccccc1Cl)c1[nH]c2ccc(Br)cc2c1-c1ccccc1`, the IC50 is > 80 µM (inactive).

As for `CCN1C=CC(=C2C(=O)c3ccccc3C2=O)C=C1`, the IC50 is 1.13 µM.

For `Cc1noc(C)c1CSc1nc2ccccc2c(=O)n1-c1ccccc1`, the IC50 is > 80 µM (inactive).

In the case of `CCCCCCCCCCCCCCCC[n+]1cccc(C(=O)N(CC)CC)c1`, the IC50 is 3.3 µM.

For the molecule `O=S(=O)(Nc1cccc2ncccc12)c1cccs1`, the IC50 is 0.34 µM.

Consider `COc1cc(C(=O)N2CCN(c3cccc(C)c3C)CC2)cc(OC)c1OC`, for which the IC50 is > 80 µM (inactive).

As for `CCCCC(=O)NC(c1ccc(N(C)C)cc1)c1ccc2cccnc2c1O` (stereo not drawn), the IC50 is > 80 µM (inactive).

Regarding `CC#CC(=O)N1CCC(n2nccc2NC(=O)c2ccc3c(c2)OCO3)CC1`, the IC50 is > 80 µM (inactive).

Turning to `CC(C)Cn1c(N)c(C(=O)CSc2ccc3c(c2)OCCO3)c(=O)n(C)c1=O`, the IC50 was 51.7 µM (inactive).

For the molecule `Cc1ccc2cccc(NS(=O)(=O)c3ccccc3)c2n1`, the IC50 was 0.94 µM.

Regarding `Cc1csc2ncnc(NC3CCN(Cc4ccccc4)CC3)c12`, the IC50 was 8.31 µM.

For the molecule `CC(=O)N1c2ccc(S(=O)(=O)N3CCC(C(=O)Nc4cccc(C)n4)CC3)cc2CC1C` (stereo not drawn), the IC50 is 0.79 µM.

As to `CCOC(=O)c1ccccc1NC(=O)Cn1c(-c2nonc2N)nc2ccccc21`, the IC50 was > 80 µM (inactive).

Turning to `Cc1ccc(/C=N/NC(=O)c2c(C)nc3ccc(Br)cn23)cc1`, the IC50 was > 80 µM (inactive).

Turning to `CCN(CC)c1ccc2nc3ccc(N)cc3[n+](-c3ccccc3)c2c1`, the IC50 is 57.5 µM (inactive).

For `COc1ccc(NC(=O)C(=O)NCC2CCCN2S(=O)(=O)c2ccc(C)cc2)cc1` (stereo not drawn), the IC50 was > 80 µM (inactive).

Regarding `O=C(Nc1ccncc1)C1CCCN(S(=O)(=O)c2cccc3cccnc23)C1` (stereo not drawn), the IC50 was > 80 µM (inactive).

Turning to `Cc1ccc(-c2cc3c(N=O)c4ccccc4c-3n[nH]2)cc1`, the IC50 was 4.58 µM.

For `C[C@@H]1C=CC(=O)O[C@@H]1c1ccc(Cl)cc1`, the IC50 was 5.11 µM.

Consider `COc1ccc(C(=O)N2CCN(c3ccc([N+](=O)[O-])c(NCCc4ccc(OC)c(OC)c4)c3)CC2)cc1`, for which the IC50 is > 80 µM (inactive).

On to `O=c1cc(-c2ccccc2)[nH]c2ccccc12`, for which the IC50 is > 80 µM (inactive).

For the molecule `C/C(=N\NC(=O)c1cc(C)nc2ccccc12)c1ccccn1`, the IC50 is 1.23 µM.

As for `COc1cc(NC(=O)N2CCNC2=O)cc(C(=O)Nc2cccc(C(F)(F)F)c2)c1`, the IC50 is < 0.16 µM.

For `COc1ccc(S(=O)(=O)Nc2cccc(-c3ccc4nncn4n3)c2)cc1F`, the IC50 was > 80 µM (inactive).

As to `Cc1ccc(C)c(NS(=O)(=O)c2ccc(-c3cnc(C4CC4)o3)cc2)c1`, the IC50 was > 80 µM (inactive).

For the molecule `Cc1cc(C)c2nc(C)cc(N/N=C/c3ccc(O)cc3)c2c1`, the IC50 was 3.49 µM.

As for `NC(=O)CC(NC(=O)c1ccc(Br)cc1)c1ccc(N2CCCCCC2)c([N+](=O)[O-])c1` (stereo not drawn), the IC50 was 47.5 µM (inactive).

As to `COc1cccc(CN(C)C(=O)c2ccc(OCC(=O)Nc3cccc(C(F)(F)F)c3)c(OC)c2)c1`, the IC50 is 65.7 µM (inactive).

Turning to `O=c1cc(-c2ccccc2)[nH]c2cc(Cl)ccc12`, the IC50 is > 80 µM (inactive).

For `O=[N+]([O-])c1nn(-c2ccc3c(c2)OCCO3)n(O)c1=Nc1ccccc1`, the IC50 is < 0.16 µM.

Consider `C=C(C)[C@@]12OC3(c4ccccc4)O[C@@H]1C1[C@@H]4O[C@]4(CO)[C@@H](O)[C@]4(O)C(=O)C(C)=C[C@H]4[C@@]1(O3)[C@H](C)[C@H]2OC(=O)/C=C/C=C/c1ccccc1` (stereo partly drawn), for which the IC50 is 38.9 µM (inactive).

For the molecule `CSc1nc(N(C)NC(=O)c2cccc(C)c2)c2ccccc2n1`, the IC50 was > 80 µM (inactive).

In the case of `CCCCCCCCn1c2c(c(=N)c3c1CCC3)CCCC2`, the IC50 is 27.5 µM (inactive).

With `CC(=O)Nc1ccc(S(=O)(=O)N2c3ccc(F)cc3CCC2C)cc1` (stereo not drawn), the IC50 is > 80 µM (inactive).

As for `CCC[C@H]1NC(=O)[C@H](C)N(C)C(=O)C(C)(C)C(=O)C(C)NC(=O)[C@H](Cc2ccc(OC)cc2)N(C)C(=O)[C@H](C(C)C)N(C)C(=O)CNC(=O)[C@H](CC(C)C)N(C)C(=O)CNC(=O)[C@H]([C@@H](C)CC)OC(=O)[C@H]1C` (stereo partly drawn) (cyclo(G[NMeL]G[NMeV][NMeY](Me)[X1][NMeA][X2])), the IC50 is 29.3 µM (inactive).

Turning to `O=C(Nc1ccc(S(=O)(=O)Nc2ccc(F)cc2)cc1)c1ccc(CN2CCOCC2)cc1`, the IC50 was > 80 µM (inactive).

Turning to `O=C(N/N=C(\c1ccccc1)c1cccnc1)c1cccc(F)c1`, the IC50 is 3.1 µM.

Take `CCOc1ccc(S(=O)(=O)N2c3ccccc3CC2C)cc1` (stereo not drawn): the IC50 was > 80 µM (inactive).

For the molecule `CCCC(=O)NC(c1ccc(OC)cc1)c1ccc2cccnc2c1O` (stereo not drawn), the IC50 is > 80 µM (inactive).

For the molecule `O=C(NCc1ccc2c(c1)OCO2)c1cc([N+](=O)[O-])ccc1N1CCOCC1`, the IC50 is > 80 µM (inactive).

For `C=C(C)COc1ccc(-c2n[nH]c(C)c2-c2ccc(OC)c(OC)c2)c(O)c1`, the IC50 was 43.3 µM (inactive).

For the molecule `CCN(CC)c1ccc(/C=N/NC(=O)c2cccc(S(=O)(=O)Nc3ccccc3OC)c2)c(O)c1`, the IC50 was 3.3 µM.

On to `Cc1cccc(OCCNC(=O)c2ccc(Cl)c(S(=O)(=O)NCc3cccnc3)c2)c1`, for which the IC50 is > 80 µM (inactive).

In the case of `O=C(c1ccc(Cl)cc1)c1cc([N+](=O)[O-])ccc1N1CCOCC1`, the IC50 was 76 µM (inactive).

For `O=C(Nc1ccc([N+](=O)[O-])cc1)Nc1ccon1`, the IC50 is > 80 µM (inactive).
